Data: publication PMC4770715, “LIM kinase inhibitors disrupt mitotic microtubule organization and impair tumor cell proliferation” (Oncotarget, 2015)

What was measured:
Test in all cases: biochemical
Parameters in all cases: KINOMEscan active-site competition binding, percent of control (100 = no competition)
Conditions in all cases: competition binding, percent control
[1] = biological target: T1, ABL1(Y253F)-phosphorylated (Homo sapiens, UniProt P00519, Y253F)
T1 construct: phosphorylated

[2] = biological target: ABL2 (Homo sapiens, UniProt P42684)
[3] = biological target: ACVR1 (Homo sapiens, UniProt Q04771)
[4] = biological target: BRAF(V600E) (Homo sapiens, UniProt P15056, V600E)
[5] = biological target: CAMKK2 (Homo sapiens, UniProt Q96RR4)
[6] = biological target: T2, CDK11 (Homo sapiens, UniProt Q9BWU1)
T2 construct: gene CDK19

[7] = biological target: CHEK1 (Homo sapiens, UniProt O14757)
[8] = biological target: T3, DRAK2 (Homo sapiens, UniProt O94768)
T3 construct: gene STK17B

[9] = biological target: EGFR(S752-I759del) (Homo sapiens, UniProt P00533, DEL752-759)
[10] = biological target: T4, ERK1 (Homo sapiens, UniProt P27361)
T4 construct: gene MAPK3

[11] = biological target: FGFR1 (Homo sapiens, UniProt P11362)
[12] = biological target: FGFR4 (Homo sapiens, UniProt P22455)
[13] = biological target: T5, GCN2(Kin.Dom.2,S808G) (Homo sapiens, UniProt Q9P2K8, S808G)
T5 construct: gene EIF2AK4; Kin.Dom.2

[14] = biological target: GRK4 (Homo sapiens, UniProt P32298)
[15] = biological target: T6, IKK-alpha (Homo sapiens, UniProt O15111)
T6 construct: gene CHUK

[16] = biological target: KIT(V559D,T670I) (Homo sapiens, UniProt P10721, T670I/V559D)
[17] = biological target: MARK4 (Homo sapiens, UniProt Q96L34)
[18] = biological target: MKNK2 (Homo sapiens, UniProt Q9HBH9)
[19] = biological target: MYO3A (Homo sapiens, UniProt Q8NEV4)
[20] = biological target: PIP5K1A (Homo sapiens, UniProt Q99755)
[21] = biological target: RET (Homo sapiens, UniProt P07949)
[22] = biological target: SBK1 (Homo sapiens, UniProt Q52WX2)
[23] = biological target: TLK2 (Homo sapiens, UniProt Q86UE8)

T2 sequence (Q9BWU1 whole entry): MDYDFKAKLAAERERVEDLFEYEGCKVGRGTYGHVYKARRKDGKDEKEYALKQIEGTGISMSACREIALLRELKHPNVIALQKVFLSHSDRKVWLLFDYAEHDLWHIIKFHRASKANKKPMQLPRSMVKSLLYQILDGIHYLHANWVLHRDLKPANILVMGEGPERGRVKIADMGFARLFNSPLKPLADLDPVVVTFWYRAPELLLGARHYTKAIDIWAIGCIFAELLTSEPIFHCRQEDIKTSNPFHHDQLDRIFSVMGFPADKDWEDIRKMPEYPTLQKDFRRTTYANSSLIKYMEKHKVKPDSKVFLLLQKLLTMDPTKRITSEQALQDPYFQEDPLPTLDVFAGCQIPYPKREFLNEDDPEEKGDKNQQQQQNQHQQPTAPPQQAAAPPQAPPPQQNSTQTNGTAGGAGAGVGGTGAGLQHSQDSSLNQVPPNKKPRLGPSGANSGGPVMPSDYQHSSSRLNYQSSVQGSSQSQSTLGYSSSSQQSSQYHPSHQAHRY
FGFR1, sequence (P11362 whole entry): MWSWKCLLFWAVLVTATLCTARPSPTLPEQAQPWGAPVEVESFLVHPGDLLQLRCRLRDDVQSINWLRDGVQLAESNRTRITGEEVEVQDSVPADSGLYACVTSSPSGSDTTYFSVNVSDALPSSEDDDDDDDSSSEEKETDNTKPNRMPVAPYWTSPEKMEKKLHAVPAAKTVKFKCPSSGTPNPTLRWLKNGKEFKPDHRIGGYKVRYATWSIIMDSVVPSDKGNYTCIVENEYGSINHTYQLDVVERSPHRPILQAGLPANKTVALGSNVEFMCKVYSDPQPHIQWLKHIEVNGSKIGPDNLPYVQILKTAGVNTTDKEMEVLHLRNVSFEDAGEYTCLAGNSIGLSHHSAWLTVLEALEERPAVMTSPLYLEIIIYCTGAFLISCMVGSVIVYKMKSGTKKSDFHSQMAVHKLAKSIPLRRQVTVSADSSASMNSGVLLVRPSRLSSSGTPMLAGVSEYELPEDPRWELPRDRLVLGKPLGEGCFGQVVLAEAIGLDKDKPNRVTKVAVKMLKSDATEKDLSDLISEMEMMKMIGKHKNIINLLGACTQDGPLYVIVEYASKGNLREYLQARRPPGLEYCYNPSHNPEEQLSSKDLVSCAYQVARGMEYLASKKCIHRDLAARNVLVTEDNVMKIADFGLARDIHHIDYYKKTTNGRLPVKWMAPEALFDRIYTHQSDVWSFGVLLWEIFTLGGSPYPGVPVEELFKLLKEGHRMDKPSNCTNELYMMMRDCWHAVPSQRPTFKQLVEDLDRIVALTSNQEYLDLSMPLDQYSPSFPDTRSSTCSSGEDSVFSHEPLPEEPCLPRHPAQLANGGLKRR
ACVR1, sequence (Q04771 whole entry): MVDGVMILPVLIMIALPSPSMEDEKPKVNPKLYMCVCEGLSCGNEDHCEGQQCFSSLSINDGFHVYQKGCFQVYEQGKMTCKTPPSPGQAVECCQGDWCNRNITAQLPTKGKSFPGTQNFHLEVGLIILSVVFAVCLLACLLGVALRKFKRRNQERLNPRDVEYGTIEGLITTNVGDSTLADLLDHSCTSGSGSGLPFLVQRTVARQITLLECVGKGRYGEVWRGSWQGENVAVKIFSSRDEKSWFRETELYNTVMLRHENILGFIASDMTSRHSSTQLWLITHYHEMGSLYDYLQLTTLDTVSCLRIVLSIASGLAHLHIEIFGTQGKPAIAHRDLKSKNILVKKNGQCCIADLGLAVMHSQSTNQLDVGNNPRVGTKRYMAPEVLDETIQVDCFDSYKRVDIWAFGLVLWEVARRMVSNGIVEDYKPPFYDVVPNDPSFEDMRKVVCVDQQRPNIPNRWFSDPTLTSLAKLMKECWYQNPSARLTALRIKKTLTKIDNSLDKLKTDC
CHEK1, sequence (O14757 whole entry): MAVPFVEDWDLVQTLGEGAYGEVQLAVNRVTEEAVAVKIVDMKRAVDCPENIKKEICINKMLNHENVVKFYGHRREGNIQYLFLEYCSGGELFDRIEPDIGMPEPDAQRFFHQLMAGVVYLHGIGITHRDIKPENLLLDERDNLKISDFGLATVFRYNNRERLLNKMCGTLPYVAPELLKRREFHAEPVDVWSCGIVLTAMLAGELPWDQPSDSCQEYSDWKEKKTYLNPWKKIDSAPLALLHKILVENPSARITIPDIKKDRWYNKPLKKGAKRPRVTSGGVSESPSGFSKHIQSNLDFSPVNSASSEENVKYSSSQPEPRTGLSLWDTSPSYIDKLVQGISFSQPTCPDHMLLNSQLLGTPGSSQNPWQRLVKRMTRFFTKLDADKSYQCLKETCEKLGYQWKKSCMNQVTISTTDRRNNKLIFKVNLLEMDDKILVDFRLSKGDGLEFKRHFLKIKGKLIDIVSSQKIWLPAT
EGFR(S752-I759del), sequence (P00533 with tags, fused parts or gaps DEL752-759): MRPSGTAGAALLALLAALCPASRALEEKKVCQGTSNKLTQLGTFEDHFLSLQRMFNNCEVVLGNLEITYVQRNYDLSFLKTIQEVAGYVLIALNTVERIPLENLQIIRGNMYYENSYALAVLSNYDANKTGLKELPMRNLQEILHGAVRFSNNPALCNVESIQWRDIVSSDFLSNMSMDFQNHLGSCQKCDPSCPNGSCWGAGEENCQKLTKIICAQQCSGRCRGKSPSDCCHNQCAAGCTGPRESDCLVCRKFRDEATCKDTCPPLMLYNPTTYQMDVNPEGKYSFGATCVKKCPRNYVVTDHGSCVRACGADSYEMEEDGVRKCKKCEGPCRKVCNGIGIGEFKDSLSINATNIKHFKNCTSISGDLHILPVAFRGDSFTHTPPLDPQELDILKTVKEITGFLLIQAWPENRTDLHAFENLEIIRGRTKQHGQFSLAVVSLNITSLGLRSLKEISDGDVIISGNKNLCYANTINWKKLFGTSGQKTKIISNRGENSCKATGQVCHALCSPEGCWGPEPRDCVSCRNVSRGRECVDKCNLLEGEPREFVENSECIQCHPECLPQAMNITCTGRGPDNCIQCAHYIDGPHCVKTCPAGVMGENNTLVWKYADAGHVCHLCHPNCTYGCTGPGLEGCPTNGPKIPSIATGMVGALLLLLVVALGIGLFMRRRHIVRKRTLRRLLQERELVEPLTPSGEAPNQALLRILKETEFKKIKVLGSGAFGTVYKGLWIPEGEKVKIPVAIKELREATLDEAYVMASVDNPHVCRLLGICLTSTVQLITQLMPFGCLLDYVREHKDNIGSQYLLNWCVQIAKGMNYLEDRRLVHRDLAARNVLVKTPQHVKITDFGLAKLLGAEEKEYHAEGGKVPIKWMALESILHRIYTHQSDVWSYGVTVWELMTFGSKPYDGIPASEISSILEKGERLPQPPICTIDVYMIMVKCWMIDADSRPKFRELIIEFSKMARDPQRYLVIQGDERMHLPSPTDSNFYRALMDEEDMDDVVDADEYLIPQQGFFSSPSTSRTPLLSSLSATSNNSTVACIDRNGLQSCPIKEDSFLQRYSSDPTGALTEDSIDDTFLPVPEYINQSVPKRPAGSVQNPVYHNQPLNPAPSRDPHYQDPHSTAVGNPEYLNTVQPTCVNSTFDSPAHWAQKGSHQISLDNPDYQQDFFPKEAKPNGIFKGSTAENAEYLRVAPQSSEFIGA
GRK4, sequence (P32298 whole entry): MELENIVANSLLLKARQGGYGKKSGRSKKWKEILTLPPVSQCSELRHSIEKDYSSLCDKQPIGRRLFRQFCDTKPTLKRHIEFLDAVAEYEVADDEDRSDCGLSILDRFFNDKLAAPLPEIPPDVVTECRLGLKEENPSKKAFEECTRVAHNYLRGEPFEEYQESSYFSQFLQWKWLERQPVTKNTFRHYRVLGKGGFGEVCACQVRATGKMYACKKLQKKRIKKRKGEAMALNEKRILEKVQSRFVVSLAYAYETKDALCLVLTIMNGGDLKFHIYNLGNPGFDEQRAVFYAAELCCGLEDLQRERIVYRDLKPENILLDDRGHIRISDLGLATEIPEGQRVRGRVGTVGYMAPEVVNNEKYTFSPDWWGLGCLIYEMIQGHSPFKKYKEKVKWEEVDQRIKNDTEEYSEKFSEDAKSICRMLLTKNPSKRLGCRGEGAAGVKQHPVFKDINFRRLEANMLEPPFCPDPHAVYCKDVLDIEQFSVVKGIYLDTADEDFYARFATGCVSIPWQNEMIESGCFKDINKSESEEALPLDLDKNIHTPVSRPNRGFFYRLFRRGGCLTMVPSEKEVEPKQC
T6 sequence (O15111 whole entry): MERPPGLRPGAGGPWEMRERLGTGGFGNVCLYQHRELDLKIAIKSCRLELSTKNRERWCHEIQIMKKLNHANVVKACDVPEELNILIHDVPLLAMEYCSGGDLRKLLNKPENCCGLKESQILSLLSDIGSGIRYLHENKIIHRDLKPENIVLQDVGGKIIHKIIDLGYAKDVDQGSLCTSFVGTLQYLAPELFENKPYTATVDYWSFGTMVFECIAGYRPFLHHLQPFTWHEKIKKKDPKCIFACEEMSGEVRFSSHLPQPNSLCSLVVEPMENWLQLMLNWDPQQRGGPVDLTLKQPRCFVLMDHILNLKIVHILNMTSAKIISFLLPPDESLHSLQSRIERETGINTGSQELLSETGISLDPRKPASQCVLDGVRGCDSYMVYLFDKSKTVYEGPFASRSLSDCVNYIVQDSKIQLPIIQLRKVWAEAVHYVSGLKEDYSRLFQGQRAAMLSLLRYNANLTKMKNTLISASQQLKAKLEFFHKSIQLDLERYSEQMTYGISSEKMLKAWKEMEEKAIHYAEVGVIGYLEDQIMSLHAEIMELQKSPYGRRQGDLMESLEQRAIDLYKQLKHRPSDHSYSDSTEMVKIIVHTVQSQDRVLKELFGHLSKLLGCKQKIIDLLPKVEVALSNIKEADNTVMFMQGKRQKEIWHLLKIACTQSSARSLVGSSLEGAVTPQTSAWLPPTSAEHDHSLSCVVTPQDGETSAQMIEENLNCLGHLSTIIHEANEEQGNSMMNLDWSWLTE

Row | Compound | remaining binding at 10 µM [1] | remaining binding at 10 µM [2] | remaining binding at 10 µM [3] | remaining binding at 10 µM [4] | remaining binding at 10 µM [5] | remaining binding at 10 µM [6] | remaining binding at 10 µM [7] | remaining binding at 10 µM [8] | remaining binding at 10 µM [9] | remaining binding at 10 µM [10] | remaining binding at 10 µM [11] | remaining binding at 10 µM [12] | remaining binding at 10 µM [13] | remaining binding at 10 µM [14] | remaining binding at 10 µM [15] | remaining binding at 10 µM [16] | remaining binding at 10 µM [17] | remaining binding at 10 µM [18] | remaining binding at 10 µM [19] | remaining binding at 10 µM [20] | other results
1 | COc1ccc(-c2cnccc2-c2cnc(NC(=O)C(C)C)s2)c(C(F)(F)F)c1 [CRT0105446, N-{5-[3-(4-Methoxy-2-trifluoromethyl-phenyl)-pyridin-4-yl]-hiazol-2-yl}-isobutyramide] | 89% | 100% | 100% | 64% | 95% | 34% | 100% | 100% | 84% | 100% | 98% | 90% | 92% | 100% | 89% | 74% | 57% | 68% | 100% | 100% | remaining binding at 10 µM [21]: 87%; remaining binding at 10 µM [22]: 100%; remaining binding at 10 µM [23]: 99%
2 | Cc1ccc(-c2cnccc2-c2cnc(Nc3ccc(O)cc3)s2)c(Cl)c1 [CRT0105950, 4-{5-[3-(2-Chloro-4-methyl-phenyl)-pyridin-4-yl]-thiazol-2-ylamino}-phenol] | 74% | 58% | 52% | 83% | 43% | 2.3% | 88% | 100% | 69% | 96% | 5% | 29% | 94% | 89% | 94% | 36% | 4% | 1.8% | 65% | 82% | remaining binding at 10 µM [21]: 1.2%; remaining binding at 10 µM [22]: 79%; remaining binding at 10 µM [23]: 56%
